“And” between values parts separate entries of the source, which are not always exact repeats. Equal entries are not always repeated. “Also recorded” adds a separate entry of the source. Where two headings read alike, the source gives them in different places.
Assays:
[1] = Antiphlogistic effect, carrageenin-oedema test (Series 1, Table 3)
Description: The antiphlogistic effects were studied on Wistar rats of both sexes, animal subjects found to be particularly prone to indomethacin ulcerogenisis, each weighing 100 to 150 g. The animals were starved for 24 hours, and then 0.1 ml portions of a 1% carrageenin solution were injected under mild ether anaesthesia into the plantar region of one of the hind paws in order to provoke inflammation (oedema). The antiphlogistic agent or a combination thereof was introduced into the stomach of the animals via a stomach tube immediately before injecting the carrageenin solution. 4 hours after this treatment the animals were sacrificed, and both hind paws were amputated above the ankles. The paws were weighed, and the oedema weight was calculated from the weight difference of the treated and untreated paws.

[2] = rat, in vivo
in vivo [3] = conditions: rat, po
[4] = 3-day gastrointestinal side-effect test on non-starved animals (Table 4); format: in vivo, rats
Description: In the following tests animals treated for 3 days with various combinations of indomethacin and sodium salicylate were examined. The non-starved test animals were treated orally for 3 days with compositions containing 20 mg/kg of indomethacin and increasing amounts of sodium salicylate.

[5] = rat, in vivo; remark: listed apart in the source
[6] = rat, in vivo; for Analgesic ED50 / Therapeutical index LD50/ED50 (C): po
in vivo [7] = conditions: rat, po; remark: listed apart in the source
[8] = general statement; cited from earlier work
in vivo [9] = conditions: rat, po; remark: listed apart in the source
[10] = rat, in vivo; for ED50 at 180 min: po
in vivo [11] = conditions: rat, po; remark: listed apart in the source
[12] = treated subsequently with Na-salicylate; cited from earlier work
[13] = Gastric ulcerogenic side-effects, starved rats (Series 1, Tables 1 and 2); conditions: for No. of ulcer/stomach / Ulcer-free animals % / Ulcer-free animals No.: 4 h
prostaglandin synthesis = conditions: listed as Na-salicylate; cited from earlier work
[14] = indomethacin 3 × 20 mg/kg p.o. alone

CC(=O)Oc1ccccc1C(=O)O [Aspirin, acetylsalicylic acid]
main antiphlogistic effects when administered together with sodium salicylate [1]: remain unchanged, or even the antiphlogistic effects of the two active agents are superimposed
ulcerogenic side-effects when administered together with sodium salicylate [2]: can also be antagonized effectively

COc1ccc2c(c1)c(CC(=O)O)c(C)n2C(=O)c1ccc(Cl)cc1 [Indomethacin]
Inhibition of oedema, 3rd day, left (challenged) foot (daily dose 0.65 mg/kg p.o.): 26.7 percentage of control
Inhibition of oedema, 21st day, left foot (daily dose 0.65 mg/kg p.o.): 46.6 percentage of control
Inhibition of oedema, 21st day, right foot (daily dose 0.65 mg/kg p.o.): 47.2 percentage of control
Inhibition of oedema, 3rd day, left (challenged) foot (daily dose 1.25 mg/kg p.o.): 36.3 percentage of control
Inhibition of oedema, 21st day, left foot (daily dose 1.25 mg/kg p.o.): 46.7 percentage of control
Inhibition of oedema, 21st day, right foot (daily dose 1.25 mg/kg p.o.): 35.6 percentage of control
Inhibition of oedema, 3rd day, left (challenged) foot (daily dose 2.50 mg/kg p.o.): 36.8 percentage of control
Inhibition of oedema, 21st day, left foot (daily dose 2.50 mg/kg p.o.): 58.0 percentage of control
Inhibition of oedema, 21st day, right foot (daily dose 2.50 mg/kg p.o.): 72.6 percentage of control
selectivity ratio (in vivo [3]): 5.2
Oedema-inhibiting effect % ([1]; indomethacin 5 mg/kg p.o. alone): 40%
Oedema-inhibiting effect % ([1]; indomethacin 10 mg/kg p.o. alone): 45%
Died animals No. [4, 14]: 33 No.
Ulcerous animals % [4, 14]: 100%
Ulcerous animals No. [4, 14]: 45 No.
ulcers in the intestines of the survivors ([4]; indomethacin only, 20 mg/kg for 3 days, orally): clearly visible ulcers appeared in the intestines of the survivors
mortality at 72 h ([4]; rat, in vivo, po, indomethacin 3 × 20 mg/kg p.o. alone, 3rd day, read-out: Died animals %): 73%
acute toxicity of indomethacin alone relative to combination with Na-salicylate [5]: 72 fold
Relative intestinal toxicity IUD50/ED50 (C) [6]: 3.8
Analgesic ED50 [6]: 3.65 mg/kg
Therapeutical index LD50/ED50 (C) [6]: 3.4
LD50 (in vivo [7]): 12.5 mg/kg
ulcerating potency among non-steroid antiinflammatory agents [8]: most potent ulcerating compound
TD50 at 48 h (in vivo [9]): 14 mg/kg
Inhibition of oedema 30 min following carrageenin [10]: 23.6 and 42.3 and 42.7
Inhibition of oedema 180 min following carrageenin [10]: 30.5 and 53.0 and 53.4
Relative intestinal toxicity IUD50/ED50 (A) [10]: 5.8
ED50 at 180 min [10]: 2.4 mg/kg
TD50 at 4 h (in vivo [11]): 5 mg/kg
reduction of indomethacin blood levels [12]: 30-50%

O=C(O)c1cccnc1Nc1cccc(C(F)(F)F)c1 [Niflumic acid]
main antiphlogistic effects when administered together with sodium salicylate [1]: remain unchanged, or even the antiphlogistic effects of the two active agents are superimposed
ulcerogenic side-effects when administered together with sodium salicylate [2]: can also be antagonized effectively

CCCCC1C(=O)N(c2ccccc2)N(c2ccccc2)C1=O [Phenylbutazone, 4-butyl-1,2-diphenyl-pyrazolidine-3,5-dione]
main antiphlogistic effects when administered together with sodium salicylate [1]: remain unchanged, or even the antiphlogistic effects of the two active agents are superimposed
ulcerogenic side-effects when administered together with sodium salicylate [2]: can also be antagonized effectively

O=C([O-])c1ccccc1O.[Na+] [Sodium salicylate]
selectivity ratio (in vivo [3]): 7.5
Oedema-inhibiting effect % ([1]; sodium salicylate 50 mg/kg p.o. alone): 15%
Oedema-inhibiting effect % ([1]; sodium salicylate 100 mg/kg p.o. alone): 43%
No. of ulcer/stomach ([13]; 50 mg/kg p.o.): 0.1 ulcer/stomach
Ulcer-free animals % ([13]; 50 mg/kg p.o.): 82%
Ulcer-free animals No. ([13]; 50 mg/kg p.o.): 37 No.
No. of ulcer/stomach ([13]; 100 mg/kg p.o.): 0.1 ulcer/stomach
Ulcer-free animals % ([13]; 100 mg/kg p.o.): 96%
Ulcer-free animals No. ([13]; 100 mg/kg p.o.): 27 No.
No. of ulcer/stomach ([13]; 200 mg/kg p.o.): 1.2 ulcer/stomach
Ulcer-free animals % ([13]; 200 mg/kg p.o.): 50%
Ulcer-free animals No. ([13]; 200 mg/kg p.o.): 37 No.
No. of ulcer/stomach ([13]; 400 mg/kg p.o.): 1.1 ulcer/stomach
Ulcer-free animals % ([13]; 400 mg/kg p.o.): 71%
Ulcer-free animals No. ([13]; 400 mg/kg p.o.): 32 No.
gastrointestinal hemorrhagic or ulcerogenic side-effects of other non-steroidal antiphlogistic agents, specifically indomethacin ([13]; Series 1 discussion): antangonizes the gastrointestinal hemmorhagic or ulcerogenic side-effects
Analgesic ED50 [6]: 513 mg/kg
Therapeutical index LD50/ED50 (C) [6]: 4.6
LD50 (in vivo [7]): 2400 mg/kg
inhibition of prostaglandin synthesis (prostaglandin synthesis): except Na-salicylate; also recorded: practically ineffective as a prostaglandin inhibitor
ED50 at 180 min [10]: 320 mg/kg
